# Target: T1, recombinant JAK2 (JAK2 JH1 domain) (Homo sapiens, UniProt O60674)
# T1 construct: 50 nM JAK2 JH1 domain (Upstate); purchased Upstate
# Experiment: JAK2 Kinase Activity Inhibition Assay and Determination of IC50 (HTRF)
# Format: biochemical
# Settings: HTRF kinase assay, 15 μM MgATP, 50 nM JAK2 JH1 domain
# Method: JAK2 Kinase Activity Inhibition Assay and Determination of IC50
# The kinase activity was measured using a modified version of the homogeneous time-resolved tyrosine kinase assay described in Park et al. Anal. Biochem. 269, 94-104 (1999).
# IC50 was obtained by fitting the observed relationship between compound/inhibitor concentration and HTRF signal with a 4-parameter logistic equation.
# Compounds of the instant invention are potent inhibitors of recombinant purified JAK2 kinase activity with an IC50 of approximately 8 nM-1 μM.
# T1 sequence (O60674 849-1124 limits assumed): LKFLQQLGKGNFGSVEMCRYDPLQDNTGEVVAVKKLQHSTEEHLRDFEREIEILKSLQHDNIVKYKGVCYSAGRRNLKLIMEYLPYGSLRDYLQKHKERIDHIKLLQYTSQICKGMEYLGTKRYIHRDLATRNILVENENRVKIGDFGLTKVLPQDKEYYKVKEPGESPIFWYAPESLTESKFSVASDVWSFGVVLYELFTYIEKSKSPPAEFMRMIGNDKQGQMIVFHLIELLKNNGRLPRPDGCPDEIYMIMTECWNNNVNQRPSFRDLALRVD
row,SMILES,IC50 [nM]
1,"CS(=O)(=O)c1ccc(Nc2nn(-c3ccccc3)cc2C(N)=O)cc1 [Example 1, 3-{[4-(methylsulfonyl)phenyl]amino}-1-phenyl-1H-pyrazole-4-carboxamide]",170
2,"CNC(=O)c1ccc(Nc2nn(-c3ccccc3)cc2C(N)=O)cc1 [Example 2, 3-({4-[(methylamino)carbonyl]phenyl}amino)-1-phenyl-1H-pyrazole-4-carboxamide]",160
3,"NC(=O)c1cn(-c2ccccc2)nc1Nc1ccnc(CO)c1 [Example 3, 3-{[2-(hydroxymethyl)pyridin-4-yl]amino}-1-phenyl-1H-pyrazole-4-carboxamide]",860
4,"NC(=O)c1cn(-c2ccccc2)nc1Nc1ccc(C(=O)N2CCOCC2)cc1 [Example 4, 3-{[4-(morpholin-4-ylcarbonyl)phenyl]amino}-1-phenyl-1H-pyrazole-4-carboxamide]",94
5,"NC(=O)c1cn(-c2ccccc2)nc1Nc1ccc(S(=O)(=O)N2CCOCC2)cc1 [Example 5, 3-{[4-(morpholin-4-ylsulfonyl)phenyl]amino}-1-phenyl-1H-pyrazole-4-carboxamide]",63
6,"CN(C)S(=O)(=O)c1ccc(Nc2nn(-c3ccccc3)cc2C(N)=O)cc1 [Example 6, 3-({4-[(dimethylamino)sulfonyl]phenyl}amino)-1-phenyl-1H-pyrazole-4-carboxamide]",42
7,"CN(C)C(=O)c1ccc(Nc2nn(-c3ccccc3)cc2C(N)=O)cc1 [Example 7, 3-({4-[(dimethylamino)carbonyl]phenyl}amino)-1-phenyl-1H-pyrazole-4-carboxamide]",56
8,"NC(=O)c1cn(-c2ccccc2)nc1Nc1ccccc1 [Example 8, 3-anilino-1-phenyl-1H-pyrazole-4-carboxamide]",480
9,"CN1CCN(C(=O)c2ccc(Nc3nn(-c4ccccc4)cc3C(N)=O)cc2)CC1 [Example 9, 3-({4-[(4-methylpiperazin-1-yl)carbonyl]phenyl}amino)-1-phenyl-1H-pyrazole-4-carboxamide]",38
10,"NC(=O)c1cn(-c2ccccc2)nc1Nc1ccc(C(=O)N2CCS(=O)(=O)CC2)cc1 [Example 10, 3-({4-[(1,1-dioxidothiomorpholin-4-yl)carbonyl]phenyl}amino)-1-phenyl-1H-pyrazole-4-carboxamide]",13
11,"NC(=O)c1cn(-c2ccccc2)nc1Nc1ccc(CN2CCOCC2)cc1 [Example 11, 3-{[4-(morpholin-4-ylmethyl)phenyl]amino}-1-phenyl-1H-pyrazole-4-carboxamide]",49
12,"NC(=O)c1cn(-c2ccccc2)nc1Nc1ccc(CN2CCS(=O)(=O)CC2)cc1 [Example 12, 3-({4-[(1,1-dioxidothiomorpholin-4-yl)methyl]phenyl}amino)-1-phenyl-1H-pyrazole-4-carboxamide]",36
13,"CN(C)Cc1ccc(Nc2nn(-c3ccccc3)cc2C(N)=O)cc1 [Example 13, 3-({4-[(dimethylamino)methyl]phenyl}amino)-1-phenyl-1H-pyrazole-4-carboxamide]",36
14,"CC(C)(O)c1ccc(Nc2nn(-c3ccccc3)cc2C(N)=O)cc1 [Example 14, 3-{[4-(1-hydroxy-1-methylethyl)phenyl]amino}-1-phenyl-1H-pyrazole-4-carboxamide]",81
15,"CS(=O)(=O)c1ccc(Nc2nn(-c3ccc(Cl)cc3)cc2C(N)=O)cc1 [Example 15, 1-(4-chlorophenyl)-3-{[4-(methylsulfonyl)phenyl]amino}-1H-pyrazole-4-carboxamide]",290
16,"CS(=O)(=O)c1ccc(Nc2nn(-c3ccc(S(C)(=O)=O)cc3)cc2C(N)=O)cc1 [Example 16, 1-[4-(methylsulfonyl)phenyl]-3-{[4-(methylsulfonyl)phenyl]amino}-1H-pyrazole-4-carboxamide]",48
17,"CC(C)(C)c1ccc(-n2cc(C(N)=O)c(Nc3ccc(S(C)(=O)=O)cc3)n2)cc1 [Example 17, 1-(4-tert-butylphenyl)-3-{[4-(methylsulfonyl)phenyl]amino}-1H-pyrazole-4-carboxamide]",8.1
18,"CC(O)c1ccc(-n2cc(C(N)=O)c(Nc3ccc(S(C)(=O)=O)cc3)n2)cc1 (stereo not drawn) [Example 18, 1-[4-(1-hydroxyethyl)phenyl]-3-{[4-(methylsulfonyl)phenyl]amino}-1H-pyrazole-4-carboxamide]",20

# Reference: patent US8415346B2, “Inhibitors of Janus kinases” (Merck Sharp & Dohme Corp., priority 2008, dated 2013)
